Measurements from patent publication US20060062859A1, “Composition and method to optimize and customize nutritional supplement formulations by measuring genetic and metabolomic contributing factors to disease diagnosis, stratification, prognosis, metabolism, and therapeutic outcomes” (priority 2004, published 2006).
Read-outs that look alike come from different tables or passages of the source.

Assays:
[1] = after six months; cited from earlier work
[2] = Chromium picolinate vs placebo in obese subjects genotyped for DRD2 (scale weight, DEXA body fat); assay type: in vivo, human; details: for change in fat weight, body weight, percent change in weight, body weight change in kg: A2/A2 carriers; for any parameter of weight change: subjects possessing a DRD2 A1 allele (A1/A1 or A1/A2)
Method: A Case Study: Chromium and Dopamine Genes. While there is still controversy regarding the effects of chromium salts (picolinate and nicotinate) on body composition and weight loss in general, recent work seems to support the positive change in body composition in humans. The inventors embarked on a study with chromium picolinate to test out the principles of nutrigenomics. In this study they genotyped obese subjects for the dopamine D2 receptors gene (DRD2). The subjects were assessed for scale weight and for percent body fat. The subjects were divided into matched placebo and chromium picolinate (CrP) groups. […] Moreover, the inventors propose for the first time that mixed effects now observed with CrP administration in terms of body composition, may be resolved by typing the patient via DRD2 genotyping prior to treatment with chromium salts.
To reiterate, Blum and associates found similar evidence with chromium picolinate, for the role of genes in physiological response with nutritional supplements. While there still is controversy regarding the effects of chromium salts (picolinate and nicotinate) on body composition and weight loss in general, recent unpublished work seems to support the positive change in body composition in humans. In consideration of the above study, Chen and Blum and others decided to genotype 130 overweight subjects for the dopamine D2 receptor gene. The subjects were assessed for scale weight and for percent body fat using dual energy X-ray absorptionmetry (DEXA R). The subjects were divided into matched placebo and chromium picolinate groups (400 μg. per day). The sample was separated into two independent groups; those with either an A1/A1 or A1/A2 allele and those with only the A2/A2 pattern. […] Moreover, we propose for the first time that mixed effects now observed with chromium picolinate in terms of body composition, may be resolved by typing the patient via dopamine D2 receptor genotyping prior to treatment with not only chromium salts, but with other nutritional supplements as well.
In terms of weight loss ingredients one nutrient Chromium Picolinate, one of the most widely used ingredient in the weight management field, pharmacogenomically responds differentially based on the DRD2genotype. Dr. Blum is current in revision on a publication detailing these findings. Here are some details on the abstract: • Thomas J H Chen, Kenneth Blum, * Gilbert Kaats, E. R. Braverman. Arthur Eisenberg, M. Sherman. K. Davis, D E Comings, R. Wood, D. Pullin. CHROMIUM PICOLINATE A PUTATIVE ANTI-OBESITY NUTRIENT INDUCES CHANGES IN BODY COMPOSITION AS A FUNCTION OF THE Taq1 DOPAMINE D2 RECEPTOR POLYMORPHISMS. International J. Of Eating Disorders (in revision). • Objective: There is still controversy regarding the effects of chromium salts (picolinate and nicotinate) on body composition and weight loss in humans. Thus, we decided to test the hypothesis that typing the obese patients by genotyping the DRD2 gene prior to treatment with Chromium Picolinate (CrP) would result in a differential treatment outcome. • Methods: We genotyped obese subjects for the dopamine D2 receptors gene (DRD2) utilizing standard PCR techniques. The subjects were assessed for scale weight and for percent body fat using dual energy X-ray absorptiometry (DEXAR). The subjects were divided into matched placebo and CrP groups (400 ug. per day) accordingly. The sample was separated into two independent groups. Those with either an A1/A1 or A1/A2 allele or those with only the A2/A2 allelic pattern.

[3] = 400 mcg, cited from earlier work
[4] = 200 and 400 mcg, cited from earlier work
[5] = cited from earlier work

Substance: Chromium Picolinate
- lean body mass [1]: After six months the CrP group had an increase in lean
- change in fat weight, body weight, percent change in weight, body weight change in kg [2]: changes in kgms were all significant in A2/A2 group,
- change in fat weight, body weight, percent change in weight, body weight change in kg ([2]; listed as CrP): significant in A2/A2 group and non
- change in fat weight, body weight, percent change in weight, body weight change in kg ([2]; listed as chromium picolinate): all significant
- any parameter of weight change [2]: no significance was found
- any parameter of weight change ([2]; listed as CRP): do not respond
- any parameter of weight change ([2]; listed as CrP): no significance was found
- reduction in body fat vs placebo ([3]; p < 0.001): (p < 0.001) and body fat (p < 0.004), had a greater
- weight lost vs placebo ([3]; p < 0.001): 400 mcg CrP group lost significantly more weight
- body composition ([3]; p < 0.004): reduction in body fat (p < 0.001), significantly improve
- changes in Body Mass composition indicies compared with placebo [4]: 200 and 400 mcg of CrP brought about significant
- changes in Body Mass composition indicies compared with placebo ([4]; listed as chromium picolinate): body composition improvement, loss of body fat, gain in nonfat mass
- insulin response to an oral glucose load ([5]; exercise training combined with supplementation): lowered insulin response to an oral glucose load.
- body weight ([5]; supplementation alone): CrP supplementation resulted in significant weight gain,
